Here are results for 32 molecules from patent US20080261286A1, “Methods for producing optically active alpha-hydroxy amides” (Daicel Chemical Industries, Ltd., priority 2004, published 2008).

B1: α-ketoamide reductase: NADPH-dependent α-ketoamide reductase purified from baker's yeast, encoded by YDL124w (SEQ ID NO: 2) (protein, listed as Saccharomyces cerevisiae)
chain: MSFHQQFFTLNNGNKIPAIAIIGTGTRWYKNEETDATFSNSLVEQIVYALKLPGIIHIDAAEIYRTYPEVGKALSLTEKPRNAIFLTDKYSPQIKMSDSPADGLDLALKKMGTDYVDLYLLHSPFVSKEVNGLSLEEAWKDMEQLYKSGKAKNIGVSNFAVEDLQRILKVAEVKPQVNQIEFSPFLQNQTPGIYKFCQEHDILVEAYSPLGPLQKKTAQDDSQPFFEYVKELSEKYIKSEAQIILRWVTKRGVLPVTTSSKPQRISDAQNLFSFDLTAEEVDKITELGLEHEPLRLYWNKLYGKYNYAAQKV

Tested on in the first series: not listed separately
Put plainly: 2-chlorobenzoyl formamide-reducing activity of enzyme preparations. Format: biochemical. To be noted: purified enzyme; 1 mM 2-chlorobenzoyl formamide, 0.2 mM NADPH, pH 6.5, 30° C. As for the experimental part:
(§1) The enzyme is incubated in a reaction solution containing 100 mM potassium phosphate buffer (pH 6.5), 0.2 mM NADPH, and 1 mM 2-chlorobenzoyl formamide at 30° C. Adecrease in NADPH concentration is assessed by the decrease in absorbance at 340 nm. 1 U is defined as the amount of enzyme required to catalyze the decrease of 1 μmol NADPH in one minute.
Cells of E. coli DH10B strain containing pSE-YDL1 or pSG-YDL1 were grown on LB medium containing ampicillin. Cells were induced with 0.1 mM IPTG for 4 hours, and then the cells were harvested by centrifugation.
Each sample of cells was suspended in cell lysis buffer (50 mM potassium phosphate buffer (pH 8.0) containing 0.02% 2-mercaptoethanol). The cells were crushed by sonication. Then, the lysates were centrifuged and the resulting supernatants were saved as cell-free extracts.
With B1, the specific activity entry is reported as “about 105 U/mg”.

The series is the same for the next values; noted with them: purified enzyme; 1 mM 2-chlorobenzoyl formamide, 0.2 mM NADPH, pH 6.5, 30° C.; listed as purified enzyme.
B1 registered a specific activity of 105 U/mg.

The target of a further series is T1, α-ketoamide reductase (Saccharomyces cerevisiae, UniProt Q07551).
T1 construct: 500 g of live baker's yeast was purchased from Oriental yeast and the fungal cells were used to purify the enzyme; tissue Oriental Yeast; host or cells: live baker's yeast cells; enzyme purified to a single SDS-PAGE band
T1 sequence (Q07551 1-312): B1 chain
The series is described as follows: Substrate specificity of α-ketoamide reductase (relative reducing activity). Format: biochemical. Particulars: activity of reducing 2-chlorobenzoyl formamide taken as 100, substrate concentration 1 mM. As for the experimental part:
as §1
The enzyme obtained in Example 1 was incubated with any one of various α-ketoamides, α-ketoesters, β-ketoesters, aldehydes, ketones, and others. The reducing activity is represented as a relative activity when the activity of reducing 2-chlorobenzoyl formamide is taken as 100.
For the molecule `NC(=O)C(=O)c1ccc(Cl)cc1`, the “Reducing activity (%)” value is reported as 71%.
On the same count and under the same terms, to `CCOC(=O)C(=O)C(C)C` [drawing 11] belongs 71%.
Still for that read-out and setting: then `CCCC(=O)C(=O)OCC` [drawing 8], with 46%; and `CCCCCC(=O)C(=O)OCC` [drawing 10], with 50%; and `CC(=O)COC(C)=O`, with 0%.
The same measure, in the same setting: then `CCOC(=O)C(=O)CC` [drawing 7], with 33%.
As to `CCOC(=O)CC(=O)CCl`, the “Reducing activity (%)” value worked out at 4%.
As to `NC(=O)C(=O)c1cccc(Cl)c1`, the “Reducing activity (%)” value is 143%.
Same read-out and setting: to `CCOC(=O)C(C)=O` [drawing 6] belongs 9%; to `CCOC(=O)C(=O)c1ccccc1` [drawing 5], 32%.
Same read-out and setting: then `CCOC(=O)C(Cl)C(C)=O` (centres unmarked), with 0%.
On the same count and under the same terms, then `NC(=O)C(=O)c1ccccc1`, with 59%; and `CC(=O)c1ccccc1`, with 0%; and `CC1(C)COC(=O)C1=O`, with 19%.
For `CC(C)C(=O)C(=O)O`, the “Reducing activity (%)” value came out at 0%.
Still for that read-out and setting: then `COCC(C)=O`, with 0%.
The same measure, in the same setting: then `CCCCC(=O)C(=O)OCC`, with 49%; and `O=CC(=O)c1ccccc1`, with 120%; and `NC(=O)C(=O)c1ccccc1Cl` [2-chlorobenzoyl formamide], with 100%.
As to `O=C1CCCCC1=O`, the “Reducing activity (%)” value is 10%.
On the same count and under the same terms, to `O=C(CCl)c1ccccc1` belongs 0%; to `C=CCC(C(C)=O)C(=O)OCC` (centres unmarked), 0%; to `CCOC(=O)C(C)C(C)=O` (centres unmarked), 0%.
Still for that read-out and setting: then `CCOC(=O)CC(=O)c1ccccc1`, with 0%.

The target of a further series is T1, α-ketoamide reductase. The series is described as follows: Stereoselectivity of α-ketoamide reductase (optical purity of reduction product). The class given is biochemical. To be noted: product of reduction; 0.2 U purified enzyme, 10 μmol substrate, 10 μmol NADPH, pH 7.0, 37° C., 6 hours. As for the experimental part:
0.2 U of the purified enzyme and each of various α-ketoamides and α-ketoesters (10 μmol each) were incubated in 0.5 ml of 0.1 M potassium phosphate buffer (pH 7.0) in the presence of 10 μmol NADPH at 37° C. for 6 hours. The resulting α-hydroxy amides and α-hydroxyesters were extracted with ether, and then the optical purity of each compound was determined.
The optical purity was determined by the procedure described below.
The optical purity of 2-chloromandelamide was determined by chiral HPLC method or chiral GC method. The chiral HPLC method comprises chromatography using CHIRALPAK AS-H (DAICEL CHEMICAL INDUSTRIES, LTD.). The elution was carried out using a mixed solution of n-hexane and ethanol (85:15) at a flow rate 1.0 mL/min and a column temperature of 25° C. The elution peak for the compound was detected by UV absorbance at 254 nm. Under these conditions, 2-chloromandelamide was eluted 7.5 minutes (R-isomer) and 10.1 minutes (S-isomer) after the start of elution.
The chiral GC method comprises chromatography using GAMMA DEX 225 (SUPELCO; 30 m×0.25 mm×0.25 μm film thickness) under the following conditions: column temperature, 190° C.; injection temperature, 220° C.; detection temperature 220° C.; carrier gas, He/1.0 kg/cm^2. Under the conditions described above, the S-isomer was eluted 27.0 minutes, and the R-isomer was eluted 29.3 minutes after the start of the elution.
The optical purities of the other α-hydroxyesters were determined by the chiral GC method described below using Chirasil-DEX CB column (Varian; […]×0.25 μm film thickness). GAMMA DEX 225 was used to determine the optical purities of ethyl lactate (injection temperature, 180° C.; column temperature, […]; detection temperature, 180° C.; R-isomer, 6.13 minutes; S-isomer, 6.82 minutes), ethyl 2-hydroxybutyrate (injection temperature, 180° C.; column temperature, 100° C.; detection temperature, 180° C.; R-isomer, 5.88 minutes; S-isomer, 6.32 minutes), ethyl 2-hydroxyvalerate (injection temperature, 180° C.; column temperature, 110° C.; detection temperature, 180° C.; R-isomer, 6.17 minutes; S-isomer, 6.88 minutes), ethyl 2-hydroxy heptanoate (injection temperature, 180° C.; column temperature, 120° C.; detection temperature, 180° C.; R-isomer, 11.20 minutes; S-isomer, 12.00 minutes), and 2-hydroxyisovalerate (injection temperature, 180° C.; column temperature, 90° C.; detection temperature, 180° C.; R-isomer, 10.42 minutes; S-isomer, 10.89 minutes).
For `CCOC(=O)C(=O)C(C)C` [drawing 30], the “Optical purity (%)” value is greater than 99%.
On the same count and under the same terms, to `CCOC(=O)C(C)=O` [drawing 26] belongs greater than 99%; to `CCOC(=O)C(=O)c1ccccc1` [drawing 31], 97%; to `CCCCCC(=O)C(=O)OCC` [drawing 29], greater than 99%.
For the molecule `NC(=O)C(=O)c1ccccc1Cl` [drawing 25], the “Optical purity (%)” value was greater than 99%.
Take `CCOC(=O)C(=O)CC` [drawing 27]: the “Optical purity (%)” value is listed as greater than 99%.
Still for that read-out and setting: then `CCCC(=O)C(=O)OCC` [drawing 28], with 98%.

Still in this series, the particulars now being: purified enzyme (summary).
As for `NC(=O)C(=O)c1ccccc1Cl` [2-chlorobenzoyl formamide], the “purity of (R)-2-chloromandelamide produced” value is listed as no less than 99%.

Tested on in another series: not listed separately
The series is described as follows: pH and temperature dependency and stability of α-ketoamide reductase. Format: biochemical. Particulars: 100 mM potassium phosphate buffer (pH 7.0), 30 minutes. As for the experimental part: The pH of the reaction solution was altered using 0.1 M sodium acetate buffer (pH 4.0-5.5), potassiumphosphate buffer (pH 5.5-7.5), Tris-hydrochloride buffer (pH 7.5-9.0), and glycine-potassium hydroxide buffer (pH 9.0-10.5) to assess the pH dependency of the 2-chlorobenzoyl formamide-reducing activity of the enzyme obtained in Example 1. The activity at each pH was determined as a relative activity when the maximal activity was taken as 100. The optimal pH (pH range in which the relative activity is 80% or higher) was 5.5-6.5.
The enzyme obtained in Example 1 was assessed for 2-chlorobenzoyl formamide-reducing activity under standard reaction conditions at various temperatures. The activity at each temperature was determined as a relative activity when the maximal activity was taken as 100. The optimal temperature (temperature range in which the relative activity is 80% or higher) was 35 to 47° C.
The purified enzyme was incubated in 0.1 M sodium acetate buffer (pH 4.0-5.5), 0.1 M potassium phosphate buffer (pH 6.0-7.5), 0.1 M Tris-hydrochloride buffer (pH 8.0-9.0), or 0.1 M glycine-potassium hydroxide buffer (pH 9.5-10.5) at 37° C. for 10 minutes. Then, the enzymatic activity was determined as a relative activity when the activity before the treatment was taken as 100. The stable pH range (pH range in which the residual activity is 80% or higher) was pH 5.5 to 9.5.
The purified enzyme was incubated in 100 mM potassium phosphate buffer (pH 7.0) at 20 to 50° C. for 30 minutes. The temperature range in which the enzyme activity is stable (temperature range in which the residual activity is 80% or higher) falls within the range comprising 40° C. and lower temperatures.
In the case of B1, the “temperature range in which the residual activity is 80% or higher” value was no more than 40 °C.

Staying with this series, now noted: 2-chlorobenzoyl formamide-reducing activity.
Regarding B1, the “optimal pH (pH range in which the relative activity is 80% or higher)” value was 5.5-6.5.

Staying with this series, now noted: 37° C. for 10 minutes.
With B1, the “stable pH range (pH range in which the residual activity is 80% or higher)” value is given as 5.5 to 9.5.

The same series, now with this note: standard reaction conditions.
Turning to B1, the “optimal temperature (temperature range in which the relative activity is 80% or higher)” value lay within 35 to 47 °C.
